Test results reported in the NIST ThermoML archive (doi:10.1016/j.jct.2007.11.009).

Test: xn = mol fraction of the nth substance listed
Settings: Liquid, Vibrating tube method

CCCCCCCC [octane] + c1ccccc1
mass density [kg/m3]
Settings | x1 = 0.1097 | x1 = 0.2036 | x1 = 0.2984 | x1 = 0.4069 | x1 = 0.5027 | x1 = 0.5904 | x1 = 0.6989 | x1 = 0.7964 | x1 = 0.904 | x1 = 1
318.15 K, 100 kPa | 818.2 | 794.1 | 773.6 | 753.6 | 738.1 | 725.8 | 712.4 | 701.5 | 691.1 | 682.8
318.15 K, 2130 kPa | 820.2 | 796.1 | 775.6 | 755.6 | 740.1 | 727.8 | 714.4 | 703.5 | 693.1 | 684.7
318.15 K, 4150 kPa | 822.1 | 798.1 | 777.6 | 757.6 | 742.1 | 729.8 | 716.4 | 705.5 | 695.1 | 686.7
318.15 K, 6180 kPa | 824 | 800 | 779.5 | 759.5 | 744 | 731.7 | 718.3 | 707.4 | 696.9 | 688.6
318.15 K, 8210 kPa | 825.8 | 801.9 | 781.4 | 761.4 | 745.9 | 733.6 | 720.2 | 709.3 | 698.8 | 690.4
318.15 K, 10230 kPa | 827.7 | 803.7 | 783.3 | 763.3 | 747.8 | 735.5 | 722 | 711.1 | 700.6 | 692.2
318.15 K, 11250 kPa | 828.6 | 804.6 | 784.2 | 764.2 | 748.7 | 736.4 | 722.9 | 712 | 701.5 | 693.1
318.15 K, 12260 kPa | 829.4 | 805.5 | 785.1 | 765.1 | 749.6 | 737.3 | 723.8 | 713 | 702.4 | 694
318.15 K, 14290 kPa | 831.2 | 807.3 | 786.8 | 766.9 | 751.4 | 739.1 | 725.6 | 714.7 | 704.2 | 695.7
318.15 K, 16310 kPa | 832.9 | 809 | 788.6 | 768.6 | 753.2 | 740.8 | 727.3 | 716.4 | 705.9 | 697.4
318.15 K, 18340 kPa | 834.6 | 810.7 | 790.3 | 770.3 | 754.9 | 742.5 | 729 | 718.1 | 707.5 | 699.1
318.15 K, 20370 kPa | 836.2 | 812.4 | 792 | 772 | 756.6 | 744.2 | 730.7 | 719.8 | 709.2 | 700.7
318.15 K, 22390 kPa | 837.9 | 814.1 | 793.6 | 773.7 | 758.2 | 745.8 | 732.3 | 721.4 | 710.8 | 702.3
318.15 K, 24420 kPa | 839.5 | 815.7 | 795.3 | 775.3 | 759.8 | 747.4 | 733.9 | 723 | 712.4 | 703.9
318.15 K, 26450 kPa | 841 | 817.3 | 796.8 | 776.9 | 761.4 | 749 | 735.5 | 724.5 | 713.9 | 705.4
318.15 K, 28470 kPa | 842.6 | 818.8 | 798.5 | 778.5 | 763 | 750.6 | 737 | 726.1 | 715.4 | 706.9
318.15 K, 29490 kPa | 843.3 | 819.6 | 799.2 | 779.2 | 763.7 | 751.4 | 737.8 | 726.8 | 716.1 | 707.6
318.15 K, 30500 kPa | 844.1 | 820.4 | 799.9 | 780 | 764.5 | 752.1 | 738.5 | 727.5 | 716.9 | 708.3
318.15 K, 32530 kPa | 845.6 | 821.9 | 801.4 | 781.5 | 766 | 753.6 | 740 | 729 | 718.3 | 709.7
318.15 K, 34550 kPa | 847.1 | 823.4 | 802.9 | 783 | 767.5 | 755.1 | 741.5 | 730.5 | 719.7 | 711.2
318.15 K, 36580 kPa | 848.5 | 824.8 | 804.4 | 784.4 | 768.9 | 756.5 | 742.9 | 731.9 | 721.1 | 712.5
318.15 K, 38600 kPa | 850 | 826.3 | 805.8 | 785.9 | 770.4 | 757.9 | 744.3 | 733.3 | 722.5 | 713.9
318.15 K, 39620 kPa | 850.7 | 827 | 806.5 | 786.6 | 771.1 | 758.6 | 745 | 734 | 723.2 | 714.6
328.15 K, 100 kPa | 807.9 | 784.5 | 764.1 | 744.3 | 729.2 | 717 | 704 | 693.3 | 683 | 674.5
328.15 K, 2130 kPa | 810 | 786.7 | 766.2 | 746.5 | 731.4 | 719.1 | 706.1 | 695.5 | 685.1 | 676.6
328.15 K, 4150 kPa | 812.1 | 788.7 | 768.3 | 748.6 | 733.5 | 721.2 | 708.2 | 697.6 | 687.2 | 678.7
328.15 K, 6180 kPa | 814.1 | 790.8 | 770.4 | 750.7 | 735.6 | 723.3 | 710.3 | 699.7 | 689.2 | 680.7
328.15 K, 8210 kPa | 816.1 | 792.8 | 772.4 | 752.7 | 737.6 | 725.3 | 712.3 | 701.7 | 691.2 | 682.6
328.15 K, 10230 kPa | 818 | 794.7 | 774.4 | 754.7 | 739.6 | 727.3 | 714.3 | 703.7 | 693.2 | 684.6
328.15 K, 11250 kPa | 818.9 | 795.7 | 775.3 | 755.6 | 740.6 | 728.3 | 715.2 | 704.6 | 694.1 | 685.5
328.15 K, 12260 kPa | 819.9 | 796.6 | 776.3 | 756.6 | 741.5 | 729.2 | 716.2 | 705.6 | 695 | 686.4
328.15 K, 14290 kPa | 821.7 | 798.5 | 778.2 | 758.5 | 743.4 | 731.1 | 718.1 | 707.4 | 696.9 | 688.3
328.15 K, 16310 kPa | 823.6 | 800.4 | 780.1 | 760.4 | 745.3 | 733 | 719.9 | 709.3 | 698.7 | 690.1
328.15 K, 18340 kPa | 825.3 | 802.1 | 781.9 | 762.2 | 747.1 | 734.8 | 721.7 | 711.2 | 700.5 | 691.8
328.15 K, 20370 kPa | 827.1 | 803.9 | 783.6 | 763.9 | 748.9 | 736.6 | 723.4 | 713 | 702.2 | 693.6
328.15 K, 22390 kPa | 828.8 | 805.7 | 785.4 | 765.7 | 750.6 | 738.3 | 725.1 | 714.5 | 703.9 | 695.2
328.15 K, 24420 kPa | 830.5 | 807.4 | 787.1 | 767.4 | 752.3 | 740 | 726.8 | 716.2 | 705.6 | 696.9
328.15 K, 26450 kPa | 832.2 | 809.1 | 788.8 | 769.1 | 754 | 741.6 | 728.5 | 717.8 | 707.2 | 698.5
328.15 K, 28470 kPa | 833.8 | 810.7 | 790.4 | 770.7 | 755.6 | 743.2 | 730.1 | 719.4 | 708.8 | 700
328.15 K, 29490 kPa | 834.6 | 811.5 | 791.2 | 771.5 | 756.4 | 744 | 730.9 | 720.1 | 709.6 | 700.8
328.15 K, 30500 kPa | 835.4 | 812.3 | 792 | 772.3 | 757.2 | 744.8 | 731.7 | 720.9 | 710.3 | 701.6
328.15 K, 32530 kPa | 837 | 813.9 | 793.6 | 773.9 | 758.8 | 746.4 | 733.2 | 722.5 | 711.9 | 703
328.15 K, 34550 kPa | 838.5 | 815.5 | 795.2 | 775.4 | 760.3 | 747.9 | 734.7 | 724 | 713.4 | 704.5
328.15 K, 36580 kPa | 840 | 817 | 796.7 | 777 | 761.8 | 749.4 | 736.2 | 725.5 | 714.8 | 706
328.15 K, 38600 kPa | 841.5 | 818.5 | 798.2 | 778.4 | 763.3 | 750.9 | 737.7 | 726.9 | 716.2 | 707.4
328.15 K, 39620 kPa | 842.3 | 819.1 | 798.9 | 779.2 | 764 | 751.6 | 738.4 | 727.6 | 716.9 | 708.1
